Measurements taken from ChEMBL document CHEMBL1671744 (Antimicrob Agents Chemother, 2010).
Converted amounts (≈) assume the structure as drawn. Where a SMILES comes first, the peptide text is derived from it. [ ]: non-standard residue; d: D form. The star is where a group is joined. OBn = c1ccc(CO*)cc1

Key:
[1] = erythrocyte
Escherichia coli = assay: Antimicrobial activity against Escherichia coli; type: functional
Staphylococcus aureus = assay: Antimicrobial activity against Staphylococcus aureus; type: functional

Row | Structure (SMILES) | MHC [1] | MIC (Escherichia coli) [µM] | MIC (Staphylococcus aureus) [µM]
1 | CC[C@@H](C)[C@@H](NC(=O)[C@@H](C)NC(=O)[C@@H](CCCCN)NC(=O)[C@@H](CC(C)C)NC(=O)[C@@H](C)NC(=O)[C@H](NC(=O)[C@@H](Cc1c[nH]cn1)NC(=O)[C@@H](CC(C)C)NC(=O)[C@H](NC(=O)[C@H](NC(=O)[C@@H](CCCCN)NC(=O)[C@@H](CCCCN)NC(=O)[C@@H](C)NC(=O)[C@@H](CO)NC(=O)[C@@H](CCCCN)NC(=O)[C@@H](Cc1ccccc1)NC(=O)[C@H](NC(=O)[C@@H](CCCCN)NC(=O)[C@@H](CC(C)C)NC(=O)[C@@H](Cc1ccccc1)NC(=O)[C@@H](CO)NC(=O)[C@@H](CCCCN)NC(=O)[C@@H](Cc1c[nH]c2ccccc12)NC(=O)[C@@H](CCCCN)NC(C)=O)[C@H](C)O)[C@H](C)O)C(C)C)[C@H](C)O)C(=O)N[C@H](CO)C(=O)N[C@H](CO)C(N)=O | > 88.6 µM | – | –
2 | CC[C@H](C)[C@H](NC(=O)[C@H](C)NC(=O)[C@H](CCCCN)NC(=O)[C@H](CC(C)C)NC(=O)[C@H](C)NC(=O)[C@H](CCCCN)NC(=O)[C@H](Cc1cnc[nH]1)NC(=O)[C@H](CC(C)C)NC(=O)[C@@H](NC(=O)[C@H](CCCCN)NC(=O)[C@H](CCCCN)NC(=O)[C@H](CCCCN)NC(=O)[C@H](C)NC(=O)[C@H](CO)NC(=O)[C@H](CCCCN)NC(=O)[C@H](Cc1ccccc1)NC(=O)[C@@H](NC(=O)[C@H](CCCCN)NC(=O)[C@H](CC(C)C)NC(=O)[C@H](Cc1ccccc1)NC(=O)[C@H](CO)NC(=O)[C@H](CCCCN)NC(=O)[C@H](Cc1c[nH]c2ccccc12)NC(=O)[C@H](CCCCN)NC(C)=O)[C@@H](C)O)C(C)C)C(=O)N[C@@H](CO)C(=O)N[C@@H](CO)C(N)=O (Ac-KWKSFLKTFKSAKKKVLHKALKAISS-NH2) | < 2.8 µM | 2.8 (≈ 8.53 µg/mL) | –
3 | CC[C@H](C)[C@H](NC(=O)[C@H](C)NC(=O)[C@H](CCCCN)NC(=O)[C@H](CC(C)C)NC(=O)[C@H](C)NC(=O)[C@@H](NC(=O)[C@H](Cc1c[nH]cn1)NC(=O)[C@H](CC(C)C)NC(=O)[C@@H](NC(=O)[C@@H](NC(=O)[C@H](CCCCN)NC(=O)[C@@H](NC(=O)[C@H](C)NC(=O)[C@H](CO)NC(=O)[C@H](CCCCN)NC(=O)[C@H](Cc1ccccc1)NC(=O)[C@@H](NC(=O)[C@H](CCCCN)NC(=O)[C@H](CC(C)C)NC(=O)[C@H](Cc1ccccc1)NC(=O)[C@H](CO)NC(=O)[C@H](CCCCN)NC(=O)[C@H](Cc1c[nH]c2ccccc12)NC(=O)[C@H](CCCCN)NC(C)=O)[C@@H](C)O)C(C)C)[C@@H](C)O)C(C)C)[C@@H](C)O)C(=O)N[C@@H](CO)C(=O)N[C@@H](CO)C(N)=O (Ac-KWKSFLKTFKSAVKTVLHTALKAISS-NH2) | 5.2 µM | – | –
4 | CC[C@H](C)[C@H](NC(=O)[C@H](C)NC(=O)[C@H](CCCCN)NC(=O)[C@H](CC(C)C)NC(=O)[C@H](C)NC(=O)[C@@H](NC(=O)[C@H](Cc1cnc[nH]1)NC(=O)[C@H](CC(C)C)NC(=O)[C@@H](NC(=O)[C@@H](NC(=O)[C@H](CCCCN)NC(=O)[C@@H](NC(=O)[C@H](C)NC(=O)[C@H](CO)NC(=O)[C@H](CCCCN)NC(=O)[C@H](Cc1ccccc1)NC(=O)[C@@H](NC(=O)[C@H](CCCCN)NC(=O)[C@H](CC(C)C)NC(=O)[C@H](Cc1ccccc1)NC(=O)[C@H](CO)NC(=O)[C@H](CCCCN)NC(=O)[C@H](Cc1c[nH]c2ccccc12)NC(=O)[C@H](CCCCN)NC(C)=O)[C@@H](C)O)C(C)C)[C@@H](C)O)C(C)C)[C@@H](C)O)C(=O)N[C@@H](CO)C(=O)N[C@@H](CO)C(N)=O (Ac-KWKSFLKTFKSAVKTVLHTALKAISS-NH2) | – | 2.1 (≈ 6.22 µg/mL) | –
5 | CC[C@H](C)[C@H](NC(=O)CN)C(=O)NCC(=O)N[C@@H](C)C(=O)N[C@H](C(=O)N[C@@H](CC(C)C)C(=O)N[C@@H](CCCCN)C(=O)N[C@H](C(=O)N[C@@H](CC(C)C)C(=O)N[C@H](C(=O)N[C@H](C(=O)NCC(=O)N[C@@H](CC(C)C)C(=O)N1CCC[C@H]1C(=O)N[C@@H](C)C(=O)N[C@@H](CC(C)C)C(=O)N[C@H](C(=O)N[C@@H](CO)C(=O)N[C@@H](Cc1c[nH]c2ccccc12)C(=O)N[C@H](C(=O)N[C@@H](CCCCN)C(=O)N[C@@H](CCCNC(=N)N)C(=O)N[C@@H](CCCCN)C(=O)N[C@@H](CCCNC(=N)N)C(=O)N[C@@H](CCC(N)=O)C(=O)N[C@@H](CCC(N)=O)C(N)=O)[C@@H](C)CC)[C@@H](C)CC)[C@@H](C)O)[C@@H](C)O)C(C)C)C(C)C [MELITTIN] | 0.78 µM | – | –

The remaining lines, values ahead:

Row | MHC [1] | MIC (Escherichia coli) [µM] | MIC (Staphylococcus aureus) [µM] | Structure (SMILES)
6 | > 88.6 µM | 0.89 (≈ 2.57 µg/mL) | – | CC[C@H](C)[C@H](NC(=O)[C@H](CCCCN)NC(=O)[C@H](CC(C)C)NC(=O)[C@H](C)NC(=O)[C@@H](NC(=O)[C@H](Cc1cnc[nH]1)NC(=O)[C@H](CC(C)C)NC(=O)[C@@H](NC(=O)[C@@H](NC(=O)[C@H](CCCCN)NC(=O)[C@@H](NC(=O)[C@H](C)NC(=O)[C@H](CO)NC(=O)[C@H](CCCCN)NC(=O)[C@H](Cc1ccccc1)NC(=O)[C@@H](NC(=O)[C@H](CCCCN)NC(=O)[C@H](CC(C)C)NC(=O)[C@H](Cc1ccccc1)NC(=O)[C@H](CO)NC(=O)[C@H](CCCCN)NC(=O)[C@H](Cc1c[nH]c2ccccc12)NC(=O)[C@H](CCCCN)NC(C)=O)[C@@H](C)O)C(C)C)[C@@H](C)O)C(C)C)[C@@H](C)O)C(=O)N[C@@H](CO)C(=O)N[C@@H](CO)C(N)=O (Ac-KWKSFLKTFKSAVKTVLHTALKISS-NH2)
7 | 22.2 µM | – | – | CC[C@H](C)[C@H](NC(=O)[C@H](C)NC(=O)[C@H](CCCCN)NC(=O)[C@H](CC(C)C)NC(=O)[C@H](C)NC(=O)[C@@H](NC(=O)[C@H](Cc1c[nH]cn1)NC(=O)[C@H](CC(C)C)NC(=O)[C@@H](NC(=O)[C@@H](NC(=O)[C@H](CCCCN)NC(=O)[C@H](NC(=O)[C@H](C)NC(=O)[C@H](CO)NC(=O)[C@H](CCCCN)NC(=O)[C@H](Cc1ccccc1)NC(=O)[C@@H](NC(=O)[C@H](CCCCN)NC(=O)[C@H](CC(C)C)NC(=O)[C@H](Cc1ccccc1)NC(=O)[C@H](CO)NC(=O)[C@H](CCCCN)NC(=O)[C@H](Cc1c[nH]c2ccccc12)NC(=O)[C@H](CCCCN)NC(C)=O)[C@@H](C)O)C(C)C)[C@@H](C)O)C(C)C)[C@@H](C)O)C(=O)N[C@@H](CO)C(=O)N[C@@H](CO)C(N)=O (Ac-KWKSFLKTFKSA[dV]KTVLHTALKAISS-NH2)
8 | – | 1.1 (≈ 3.26 µg/mL) | – | CC[C@H](C)[C@H](NC(=O)[C@H](C)NC(=O)[C@H](CCCCN)NC(=O)[C@H](CC(C)C)NC(=O)[C@H](C)NC(=O)[C@@H](NC(=O)[C@H](Cc1cnc[nH]1)NC(=O)[C@H](CC(C)C)NC(=O)[C@@H](NC(=O)[C@@H](NC(=O)[C@H](CCCCN)NC(=O)[C@H](NC(=O)[C@H](C)NC(=O)[C@H](CO)NC(=O)[C@H](CCCCN)NC(=O)[C@H](Cc1ccccc1)NC(=O)[C@@H](NC(=O)[C@H](CCCCN)NC(=O)[C@H](CC(C)C)NC(=O)[C@H](Cc1ccccc1)NC(=O)[C@H](CO)NC(=O)[C@H](CCCCN)NC(=O)[C@H](Cc1c[nH]c2ccccc12)NC(=O)[C@H](CCCCN)NC(C)=O)[C@@H](C)O)C(C)C)[C@@H](C)O)C(C)C)[C@@H](C)O)C(=O)N[C@@H](CO)C(=O)N[C@@H](CO)C(N)=O (Ac-KWKSFLKTFKSA[dV]KTVLHTALKAISS-NH2)
9 | > 500 µg/mL | – | – | N=C(N)NCCC[C@H](NC(=O)[C@@H](N)Cc1c[nH]c2ccccc12)C(=O)N[C@@H](Cc1c[nH]c2ccccc12)C(N)=O (H-Trp-Arg-Trp-NH2)
10 | – | > 436 | 218 (≈ 119 µg/mL) | NC(=O)[C@H](Cc1c[nH]c2ccccc12)NC(=O)[C@H](CCCN=C(N)N)NC(=O)[C@@H](N)Cc1c[nH]c2ccccc12 (H-Trp-Arg-Trp-NH2)
11 | > 500 µg/mL | – | – | N=C(N)NCCC[C@H](NC(=O)[C@@H](N)Cc1c[nH]c2ccccc12)C(=O)N[C@@H](Cc1c[nH]c2ccccc12)C(=O)OCc1ccccc1 (H-Trp-Arg-Trp-OBn)
